What was measured:
Assay in all cases: relative viability (nuclei count vs DMSO), 5 days (fraction); higher = more cells survive
[1] = test system: NCI-H1648
Outline: (§1)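 Lung cancer cell lines in 1536-well plates were dosed by pin tool the day after seeding, either with one drug alone or with a fixed anchor-drug dose plus five library-drug doses (not always all listed) in √10 steps. After 5 days, cells were fixed and their nuclei stained in one step (final 0.05% Triton X-100, 1% formaldehyde, 1 ug/ml Hoechst), then counted on 4× images. Relative viability is the nuclei count in treated wells divided by that in vehicle wells. Values are medians of duplicate plates.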

[2] = test system: NCI-H1623
Outline: as §1

[3] = test system: NCI-H838
Outline: as §1

[4] = test system: NCI-H1651
Outline: as §1

[5] = test system: NCI-H650
Outline: as §1

[6] = test system: NCI-H520
Outline: as §1

[7] = test system: RERF-LC-KJ
Outline: as §1

[8] = test system: NCI-H1944
Outline: as §1

[9] = test system: PC-3 [JPC-3]
Outline: as §1

## CC(=O)O[C@@]12CO[C@@H]1C[C@H](O)[C@@]1(C)C(=O)[C@H](O)C3=C(C)[C@@H](OC(=O)[C@H](O)[C@@H](NC(=O)OC(C)(C)C)c4ccccc4)C[C@@](O)([C@@H](OC(=O)c4ccccc4)[C@H]21)C3(C)C [Docetaxel] + COc1cccc2cc(-c3nc([C@H]4CC[C@H](C(=O)O)CC4)n4ncnc(N)c34)[nH]c12 [OSI-027] (partner 0.5 µM)
[1]; first compound 0.0002 µM
  relative viability: 0.28
[1]; first compound 0.000632 µM
  relative viability: 0.267
[1]; first compound 0.002 µM
  relative viability: 0.232
[1]; first compound 0.006325 µM
  relative viability: 0.218
[1]; first compound 0.02 µM
  relative viability: 0.248
[2]; first compound 0.0002 µM
  relative viability: 0.391
[2]; first compound 0.000632 µM
  relative viability: 0.438
[2]; first compound 0.002 µM
  relative viability: 0.339
[2]; first compound 0.006325 µM
  relative viability: 0.335
[2]; first compound 0.02 µM
  relative viability: 0.298
[3]; first compound 0.0002 µM
  relative viability: 0.331
[3]; first compound 0.000632 µM
  relative viability: 0.422
[3]; first compound 0.002 µM
  relative viability: 0.259
[3]; first compound 0.006325 µM
  relative viability: 0.16
[3]; first compound 0.02 µM
  relative viability: 0.134
[4]; first compound 0.0002 µM
  relative viability: 0.627
[4]; first compound 0.000632 µM
  relative viability: 0.783
[4]; first compound 0.002 µM
  relative viability: 0.38
[4]; first compound 0.006325 µM
  relative viability: 0.14
[4]; first compound 0.02 µM
  relative viability: 0.0753
[5]; first compound 0.0002 µM
  relative viability: 0.436
[5]; first compound 0.000632 µM
  relative viability: 0.375
[5]; first compound 0.002 µM
  relative viability: 0.266
[5]; first compound 0.006325 µM
  relative viability: 0.265
[5]; first compound 0.02 µM
  relative viability: 0.181
[6]; first compound 0.0002 µM
  relative viability: 0.209
[6]; first compound 0.000632 µM
  relative viability: 0.259
[6]; first compound 0.002 µM
  relative viability: 0.276
[6]; first compound 0.006325 µM
  relative viability: 0.257
[6]; first compound 0.02 µM
  relative viability: 0.153
[7]; first compound 0.0002 µM
  relative viability: 0.564
[7]; first compound 0.000632 µM
  relative viability: 0.543
[7]; first compound 0.002 µM
  relative viability: 0.297
[7]; first compound 0.006325 µM
  relative viability: 0.248
[7]; first compound 0.02 µM
  relative viability: 0.161
[8]; first compound 0.0002 µM
  relative viability: 0.38
[8]; first compound 0.000632 µM
  relative viability: 0.423
[8]; first compound 0.002 µM
  relative viability: 0.26
[8]; first compound 0.02 µM
  relative viability: 0.139
[9]; first compound 0.0002 µM
  relative viability: 0.703
[9]; first compound 0.000632 µM
  relative viability: 0.79
[9]; first compound 0.002 µM
  relative viability: 0.441
[9]; first compound 0.02 µM
  relative viability: 0.15

## CC(=O)O[C@@]12CO[C@@H]1C[C@H](O)[C@@]1(C)C(=O)[C@H](O)C3=C(C)[C@@H](OC(=O)[C@H](O)[C@@H](NC(=O)OC(C)(C)C)c4ccccc4)C[C@@](O)([C@@H](OC(=O)c4ccccc4)[C@H]21)C3(C)C [Docetaxel] + Cc1cc(Nc2cc(N3CCN(C)CC3)nc(Sc3ccc(NC(=O)C4CC4)cc3)n2)n[nH]1 [Tozasertib] (partner 0.1 µM)
[1]; first compound 0.0002 µM
  relative viability: 0.449
[1]; first compound 0.000632 µM
  relative viability: 0.509
[1]; first compound 0.002 µM
  relative viability: 0.28
[1]; first compound 0.006325 µM
  relative viability: 0.195
[1]; first compound 0.02 µM
  relative viability: 0.155
[2]; first compound 0.0002 µM
  relative viability: 0.453
[2]; first compound 0.000632 µM
  relative viability: 0.367
[2]; first compound 0.002 µM
  relative viability: 0.409
[2]; first compound 0.006325 µM
  relative viability: 0.42
[2]; first compound 0.02 µM
  relative viability: 0.377
[3]; first compound 0.0002 µM
  relative viability: 0.236
[3]; first compound 0.000632 µM
  relative viability: 0.27
[3]; first compound 0.002 µM
  relative viability: 0.258
[3]; first compound 0.006325 µM
  relative viability: 0.28
[3]; first compound 0.02 µM
  relative viability: 0.193
[4]; first compound 0.0002 µM
  relative viability: 0.716
[4]; first compound 0.000632 µM
  relative viability: 0.717
[4]; first compound 0.002 µM
  relative viability: 0.187
[4]; first compound 0.006325 µM
  relative viability: 0.189
[5]; first compound 0.0002 µM
  relative viability: 0.666
[5]; first compound 0.000632 µM
  relative viability: 0.381
[5]; first compound 0.002 µM
  relative viability: 0.25
[5]; first compound 0.006325 µM
  relative viability: 0.25
[5]; first compound 0.02 µM
  relative viability: 0.182
[6]; first compound 0.0002 µM
  relative viability: 0.418
[6]; first compound 0.000632 µM
  relative viability: 0.468
[6]; first compound 0.002 µM
  relative viability: 0.445
[6]; first compound 0.006325 µM
  relative viability: 0.376
[6]; first compound 0.02 µM
  relative viability: 0.317
[7]; first compound 0.0002 µM
  relative viability: 0.525
[7]; first compound 0.000632 µM
  relative viability: 0.403
[7]; first compound 0.002 µM
  relative viability: 0.279
[7]; first compound 0.006325 µM
  relative viability: 0.278
[7]; first compound 0.02 µM
  relative viability: 0.197
[8]; first compound 0.0002 µM
  relative viability: 0.23
[8]; first compound 0.000632 µM
  relative viability: 0.223
[8]; first compound 0.002 µM
  relative viability: 0.235
[8]; first compound 0.006325 µM
  relative viability: 0.194
[8]; first compound 0.02 µM
  relative viability: 0.15
[9]; first compound 0.0002 µM
  relative viability: 0.851
[9]; first compound 0.000632 µM
  relative viability: 0.78
[9]; first compound 0.002 µM
  relative viability: 0.426
[9]; first compound 0.006325 µM
  relative viability: 0.209
[9]; first compound 0.02 µM
  relative viability: 0.118

— the supplement of paper PMC10307832
